In the supplement of paper PMC11061612:

How the values were obtained:
Assay in all cases: combination Emax (second highest fraction inhibited in the dose matrix, 72 h); higher = more inhibition; extreme values may be limits of the assay
[1] = system: Calu-3 (Lung Adenocarcinoma)
Method in brief: (§1)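 Cell lines in DMEM/F12 or RPMI with 10% FBS were plated in 1536-well plates, held 24 hours at 37°C, 5% CO2, then given two-drug dose matrices for 72 hours (DMSO typically 0.2%). Viability was read by CellTiter-Glo 2.0 luminescence and scaled as inhibition from 0 (vehicle wells) to 1 (blank wells). Combination Emax is the second-highest inhibition in the matrix; Bliss excess is observed combination effect minus expected EA + EB − EA·EB, EA and EB being single-agent effects.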

[2] = system: DEL (T-Cell Non-Hodgkin's Lymphoma)
Method in brief: as §1

[3] = system: EC-GI-10 (Esophageal Squamous Cell Carcinoma)
Method in brief: as §1

[4] = system: HCC1806 (Breast Carcinoma)
Method in brief: as §1

[5] = system: ME-1 (Acute Myeloid Leukemia)
Method in brief: as §1

[6] = system: MFE-296 (Endometrial Carcinoma)
Method in brief: as §1

NB10 (Neuroblastoma) = system: NB10 (Neuroblastoma)
Method in brief: as §1

[7] = system: OVCA420 (Ovarian Carcinoma)
Method in brief: as §1

T98G (Glioblastoma) = system: T98G (Glioblastoma)
Method in brief: as §1

[8] = system: TE-9 (Esophageal Squamous Cell Carcinoma)
Method in brief: as §1

[9] = system: UM-UC-3 (Bladder Carcinoma)
Method in brief: as §1

| Compound | combination Emax [1] | combination Emax [2] | combination Emax [3] | combination Emax [4] | combination Emax [5] | combination Emax [6] | combination Emax (NB10 (Neuroblastoma)) | combination Emax [7] | combination Emax (T98G (Glioblastoma)) | combination Emax [8] | combination Emax [9] |
| --- | --- | --- | --- | --- | --- | --- | --- | --- | --- | --- | --- |
| CN(C)CCCOc1ccc(-c2ccc3ncc4c(c3c2)n(C2CCOCC2)c(=O)n4C)cn1 [AZD0156] + C=CCn1c(=O)c2cnc(Nc3ccc(N4CCN(C)CC4)cc3)nc2n1-c1cccc(C(C)(C)O)n1 [AZD1775] (first compound max 1 µM, partner max 1 µM) | 0.0731 | 1 | 0.849 | 0.901 | 0.413 | 0.258 | 0.586 | 0.141 | 0.657 | 0.231 | 0.264 |
| CN(C)CCCOc1ccc(-c2ccc3ncc4c(c3c2)n(C2CCOCC2)c(=O)n4C)cn1 [AZD0156] + CCN(CCO)CCCOc1ccc2c(Nc3cc(CC(=O)Nc4cccc(F)c4)[nH]n3)ncnc2c1 [AZD2811] (first compound max 1 µM, 7x7, partner max 1 µM) | 0.061 | 0.684 | 0.471 | 0.124 | 0.2 | 0.0192 | 0.315 | 0.0163 | 0.33 | 0.0784 | 0.155 |
| CN(C)CCCOc1ccc(-c2ccc3ncc4c(c3c2)n(C2CCOCC2)c(=O)n4C)cn1 [AZD0156] + C[C@@H]1COCCN1C2=NC(=NC(=C2)C3(CC3)[S@](=N)(=O)C)C4=C5C=CNC5=NC=C4 [AZD6738] (first compound max 1 µM, 7x7, partner max 10 µM) | 0.297 | 0.988 | 0.724 | 0.937 | 0.394 | 0.388 | 0.87 | 0.545 | 0.855 | 0.354 | 0.475 |
| C=CCn1c(=O)c2cnc(Nc3ccc(N4CCN(C)CC4)cc3)nc2n1-c1cccc(C(C)(C)O)n1 [AZD1775] + C[C@@H]1COCCN1C2=NC(=NC(=C2)C3(CC3)[S@](=N)(=O)C)C4=C5C=CNC5=NC=C4 [AZD6738] (first compound max 1 µM, partner max 10 µM) | 0.301 | 1 | 0.943 | 0.961 | 0.51 | 0.659 | 0.879 | 0.518 | 0.873 | 0.67 | 0.682 |
| C=CCn1c(=O)c2cnc(Nc3ccc(N4CCN(C)CC4)cc3)nc2n1-c1cccc(C(C)(C)O)n1 [AZD1775] + O=C(c1cc(Cc2n[nH]c(=O)c3ccccc23)ccc1F)N1CCN(C(=O)C2CC2)CC1 [Olaparib] (first compound max 1 µM, partner max 10 µM) | 0.173 | 0.999 | 0.831 | 0.836 | 0.455 | 0.279 | 0.682 | 0.881 | 0.675 | 0.307 | 0.326 |
| CCN(CCO)CCCOc1ccc2c(Nc3cc(CC(=O)Nc4cccc(F)c4)[nH]n3)ncnc2c1 [AZD2811] + C=CCn1c(=O)c2cnc(Nc3ccc(N4CCN(C)CC4)cc3)nc2n1-c1cccc(C(C)(C)O)n1 [AZD1775] (first compound max 1 µM, partner max 1 µM) | 0.0931 | 1 | 0.849 | 0.867 | 0.299 | 0.152 | 0.466 | 0.179 | 0.608 | 0.207 | 0.258 |
| CCN(CCO)CCCOc1ccc2c(Nc3cc(CC(=O)Nc4cccc(F)c4)[nH]n3)ncnc2c1 [AZD2811] + C[C@@H]1COCCN1C2=NC(=NC(=C2)C3(CC3)[S@](=N)(=O)C)C4=C5C=CNC5=NC=C4 [AZD6738] (first compound max 1 µM, 7x7, partner max 10 µM) | 0.217 | 0.99 | 0.824 | 0.931 | 0.516 | 0.405 | 0.771 | 0.443 | 0.799 | 0.278 | 0.429 |
| CCN(CCO)CCCOc1ccc2c(Nc3cc(CC(=O)Nc4cccc(F)c4)[nH]n3)ncnc2c1 [AZD2811] + O=C(c1cc(Cc2n[nH]c(=O)c3ccccc23)ccc1F)N1CCN(C(=O)C2CC2)CC1 [Olaparib] (first compound max 1 µM, 7x7, partner max 10 µM) | 0.153 | 0.823 | 0.551 | 0.265 | 0.394 | 0.211 | 0.386 | 0.137 | 0.453 | 0.155 | 0.305 |
| C[C@@H]1COCCN1c1cc(C2([S@](C)(=N)=O)CC2)nc(-c2ccnc3[nH]ccc23)n1 [AZD6738] + O=C(c1cc(Cc2n[nH]c(=O)c3ccccc23)ccc1F)N1CCN(C(=O)C2CC2)CC1 [Olaparib] (first compound max 10 µM, 7x7, partner max 10 µM) | 0.193 | 0.993 | 0.747 | 0.89 | 0.538 | 0.391 | 0.811 | 0.364 | 0.817 | 0.436 | 0.584 |
| Cc1cc2ncnn2cc1Nc1ncc2c(n1)n(C1CCOCC1)c(=O)n2C [AZD7648] + C=CCn1c(=O)c2cnc(Nc3ccc(N4CCN(C)CC4)cc3)nc2n1-c1cccc(C(C)(C)O)n1 [AZD1775] (first compound max 10 µM, partner max 1 µM) | 0.242 | 1 | 0.78 | 0.894 | 0.355 | 0.295 | 0.594 | 0.418 | 0.711 | 0.275 | 0.287 |
| Cc1cc2ncnn2cc1Nc1ncc2c(n1)n(C1CCOCC1)c(=O)n2C [AZD7648] + CCN(CCO)CCCOc1ccc2c(Nc3cc(CC(=O)Nc4cccc(F)c4)[nH]n3)ncnc2c1 [AZD2811] (first compound max 10 µM, 7x7, partner max 1 µM) | 0.235 | 0.727 | 0.44 | 0.281 | 0.27 | 0.147 | 0.335 | 0.232 | 0.467 | 0.234 | 0.298 |
| Cc1cc2ncnn2cc1Nc1ncc2c(n1)n(C1CCOCC1)c(=O)n2C [AZD7648] + CN(C)CCCOc1ccc(-c2ccc3ncc4c(c3c2)n(C2CCOCC2)c(=O)n4C)cn1 [AZD0156] (first compound max 10 µM, 7x7, partner max 1 µM) | 0.215 | 0.412 | 0.161 | 0.271 | 0.213 | 0.147 | 0.307 | 0.262 | 0.266 | 0.183 | 0.236 |
| Cc1cc2ncnn2cc1Nc1ncc2c(n1)n(C1CCOCC1)c(=O)n2C [AZD7648] + C[C@@H]1COCCN1C2=NC(=NC(=C2)C3(CC3)[S@](=N)(=O)C)C4=C5C=CNC5=NC=C4 [AZD6738] (first compound max 10 µM, 7x7, partner max 10 µM) | 0.291 | 0.977 | 0.517 | 0.928 | 0.378 | 0.33 | 0.801 | 0.509 | 0.859 | 0.286 | 0.41 |
| Cc1cc2ncnn2cc1Nc1ncc2c(n1)n(C1CCOCC1)c(=O)n2C [AZD7648] + O=C(c1cc(Cc2n[nH]c(=O)c3ccccc23)ccc1F)N1CCN(C(=O)C2CC2)CC1 [Olaparib] (first compound max 10 µM, 7x7, partner max 10 µM) | 0.0691 | 0.693 | 0.341 | 0.142 | 0.172 | 0.0811 | 0.426 | 0.0465 | 0.203 | 0.119 | 0.145 |
| COc1cccc2c1C(=O)c1c(O)c3c(c(O)c1C2=O)C[C@@](O)(C(=O)CO)C[C@@H]3O[C@H]1C[C@H](N)[C@H](O)[C@H](C)O1 [Doxorubicin] + Cc1cc2ncnn2cc1Nc1ncc2c(n1)n(C1CCOCC1)c(=O)n2C [AZD7648] (first compound max 1 µM, 7x7, partner max 10 µM) | 0.301 | 1 | 0.693 | 0.919 | 0.355 | 0.295 | 0.863 | 0.224 | 0.597 | 0.148 | 0.802 |
| CS(=O)(=O)CCNCc1ccc(-c2ccc3ncnc(Nc4ccc(OCc5cccc(F)c5)c(Cl)c4)c3c2)o1 [Lapatinib] + NC1(c2ccc(-c3nc4ccn5c(=O)[nH]nc5c4cc3-c3ccccc3)cc2)CCC1 [MK-2206] (first compound max 10 µM, 7x7, partner max 10 µM) | 0.954 |  |  | 0.954 | 0.301 | 0.296 | 0.903 | 0.884 | 0.908 | 0.306 | 0.253 |
| COc1cccc(OCCCN)c1-c1cc(Nc2cnc(C#N)cn2)n[nH]1 [Prexasertib] + C=CCn1c(=O)c2cnc(Nc3ccc(N4CCN(C)CC4)cc3)nc2n1-c1cccc(C(C)(C)O)n1 [AZD1775] (first compound max 1 µM, partner max 1 µM) | 0.482 | 1 | 0.956 | 0.983 | 0.599 | 0.644 | 0.953 | 0.726 | 0.917 | 0.86 | 0.807 |
| COc1cccc(OCCCN)c1-c1cc(Nc2cnc(C#N)cn2)n[nH]1 [Prexasertib] + CN(C)CCCOc1ccc(-c2ccc3ncc4c(c3c2)n(C2CCOCC2)c(=O)n4C)cn1 [AZD0156] (first compound max 1 µM, 7x7, partner max 1 µM) | 0.409 | 1 | 0.735 | 0.967 | 0.622 | 0.583 | 0.928 | 0.676 | 0.899 | 0.596 | 0.537 |
| COc1cccc(OCCCN)c1-c1cc(Nc2cnc(C#N)cn2)n[nH]1 [Prexasertib] + C[C@@H]1COCCN1C2=NC(=NC(=C2)C3(CC3)[S@](=N)(=O)C)C4=C5C=CNC5=NC=C4 [AZD6738] (first compound max 1 µM, 7x7, partner max 10 µM) | 0.405 | 1 | 0.713 | 0.988 | 0.633 | 0.554 | 0.863 | 0.692 | 0.905 | 0.481 | 0.615 |
| CCc1c2c(nc3ccc(O)cc13)-c1cc3c(c(=O)n1C2)COC(=O)[C@]3(O)CC [SN-38] + O=C(c1cc(Cc2n[nH]c(=O)c3ccccc23)ccc1F)N1CCN(C(=O)C2CC2)CC1 [Olaparib] (first compound max 0.3 µM, 7x7, partner max 10 µM) | 0.398 | 1 |  | 0.974 | 0.497 | 0.595 | 0.866 |  | 0.632 | 0.458 | 0.985 |
